Tested on: H3R2me2a
Experiment: Western blot of H3R2me2a after glucose
Type: cell-based, budding yeast (Saccharomyces cerevisiae)
Conditions: for H3R2me2a/H3: 0.5 hr
Method: To examine the effect of glucose on histone modifications, yeast cells were grown in 2% glucose-containing YPD (Yeast Extract Peptone Dextrose) medium until OD600 of 0.7–1.0. Cells were then collected, washed and resuspended in YP medium for 3 hr followed by treatment with different concentrations of glucose for 0.5 hr. For 1NM-PP1 (MCE, HY-13804) treatment, cells were grown in 2% YPD until OD600 of 0.7–1.0. Cells were then treated with 25 μM 1NM-PP1 for 0.5 hr. For FBP and pyruvate treatment, cells were pre-treated with Zymolase (Mpbio, 08320921) to increase the permeability. In brief, cells were grown in YPD medium until OD600 of 0.7–1.0, centrifuged and resuspended in 1 ml SB buffer (100 mM Sorbitol, 20 mM Tris pH 7.4). 10 μl Zymolase was then added and incubated at 30 °C for 15 min. The spheroplasts were washed and cultured in YPD medium containing different concentrations of FBP and pyruvate for 3 hr.
Cells were grown in 5 ml YPD or selective medium until OD600 of 0.7–1.0. Cells were harvested and lysed in alkaline lysis buffer (2 M NaOH, 8% 2-mercaptoethanol). After centrifugation, the protein pellet was resuspended in 150 μl 2×SDS-sample buffer. Protein samples were separated by 8–15% SDS-PAGE and transferred to PVDF membrane. The blots were probed with primary antibodies followed by incubation with horseradish peroxidase-labelled IgG secondary antibodies. The protein bands were visualized using the ECL Chemiluminescence Detection Kit (Bio-Rad, 170–5061) and quantified with Image J software (v.1.8.0).
Supplementary Fi g . […] WT (a) and H2B-F LA G cel ls (b) wer e grown in YPD medium until OD600 of 0.7.
Cells were th en tr eat ed with YP medium supplement ed with differen t concentrations of glucos e for 0.5 hr. C ells were h ar vested an d the ex tract ed histones w er e anal yz ed by Western blots with indicat ed ant ibodies. To d et ect H2B monoubiquitination, H2B-F LAG strain w as used and d et ect ed with anti -F LAG ant ibody. Th e upper bands ar e monoubiquitinat ed H2B-F LAG. c E ff e c t of gl ucose on histone modifications in WT and ubp8∆ ubp10∆ mutant. WT and ubp8∆ ubp10∆ mut ant w er e gro wn in YPD medium unti l OD600 of 0.7. Cells wer e th en treated with YP medium supplem ent ed with di fferent con cen tr ations of gl u cos e fo r 0.5 hr. d Gluco se has no effect on the activit y of C O M PA S S . Spp1-TA P cells wer e grown in YPD medium until OD600 of 1.5. Cells were h arv est ed and then treat ed with YP + 0.05% glucos e and YP + 4% gl u cos e for 0.5 hr. Spp1-cont aining COMPASS (Spp1-CBP ) was then p urifi ed by tand em affinit y puri fi cati on ( TA P ) . Th e in vitro hi stone meth yltransferase assa y was p er form ed wit h purifi ed C O M PA S S and in vitro assembl ed nucl eosom es. e E ff e c t of the m TO R pathwa y on H3K4 meth ylation. […]
For Supplem ent ar y Fi g. 1b, e-g, i-k, d at a r ep res ent means ± SEM; n=3 i ndependent ex perim ents. For Supplem entar y Fi g. 1c, d ata represent means ± SEM; n=4 independent ex periments. Tw o -sided t-tests were used for statistical analysis.

Compound `OC[C@H]1OC(O)[C@H](O)[C@@H](O)[C@@H]1O` (stereo partly shown) [glucose] has an H3R2me2a/H3 (0.5% glucose, relative to 0.05% glucose = 1, replicate 1) of 1.016, an H3R2me2a/H3 (0.5% glucose, relative to 0.05% glucose = 1, replicate 2) of 0.8082 and an H3R2me2a/H3 (0.5% glucose, relative to 0.05% glucose = 1, replicate 3) of 1.063. The H3R2me2a/H3 (1% glucose, relative to 0.05% glucose = 1, replicate 1) was 1.0068, the H3R2me2a/H3 (1% glucose, relative to 0.05% glucose = 1, replicate 2) was 0.9832 and the H3R2me2a/H3 (1% glucose, relative to 0.05% glucose = 1, replicate 3) was 1.068. The H3R2me2a/H3 (2% glucose, relative to 0.05% glucose = 1, replicate 1) was 0.9685, the H3R2me2a/H3 (2% glucose, relative to 0.05% glucose = 1, replicate 2) was 0.8294 and the H3R2me2a/H3 (2% glucose, relative to 0.05% glucose = 1, replicate 3) was 0.8742. It also gave an H3R2me2a/H3 (4% glucose, relative to 0.05% glucose = 1, replicate 1) of 1.047, an H3R2me2a/H3 (4% glucose, relative to 0.05% glucose = 1, replicate 2) of 0.9174 and an H3R2me2a/H3 (4% glucose, relative to 0.05% glucose = 1, replicate 3) of 0.9548. For the same compound, the H3R2me2a level (glucose 0.5 hr, Western blot) was “had no significant effect on H3R2me2a”.

From article PMC9515143, “Phosphorylation of Jhd2 by the Ras-cAMP-PKA(Tpk2) pathway regulates histone modifications and autophagy” (Nature Communications, 2022)
